Experimental findings from ChEMBL document CHEMBL1129123, “Drupangtonine, a novel antileukemic alkaloid from Cephalotaxus harringtonia var. drupacea” (Bioorg Med Chem Lett, 1996) are described below.

In brackets after ≈: the same amount, converted by molar mass.

The subject of the assay is P388. Briefly: Antileukemic activity against P-388 leukemia cells. The assay is classed as functional, cell-based. To be noted: Mus musculus.
`COC(=O)C[C@](O)(CCC(C)C)C(=O)O[C@H]1[C@H]2c3cc4c(cc3[C@H]3CN5CCC[C@]25C[C@]1(OC)O3)OCO4` gave a concentration for half-maximal inhibition (IC50) of 0.007 µg/mL (≈ 0.0132 µM).
`COC(=O)C[C@](O)(CCC(C)C)C(=O)O[C@@H]1C(OC)=CC23CCCN2CCc2cc4c(cc2[C@H]13)OCO4` (single isomer, unassigned) [DEOXYHARRINGTONINE] came in with a 50% inhibitory concentration (IC50) of 0.0075 µg/mL (≈ 0.0145 µM).
Take `COC(=O)C[C@](O)(CCC(C)(C)O)C(=O)O[C@@H]1C(OC)=CC23CCCN2CCc2cc4c(cc2[C@H]13)OCO4` (single isomer, unassigned) [HARRINGTONINE]: inhibition was half-maximal at 0.032 µg/mL (≈ 0.0602 µM) (IC50).
Consider `COC(=O)C[C@](O)(CCCC(C)(C)O)C(=O)O[C@@H]1C(OC)=CC23CCCN2CCc2cc4c(cc2[C@H]13)OCO4` (single isomer, unassigned) [OMACETAXINE MEPESUCCINATE], for which half-maximal inhibition (IC50) was put at 0.017 µg/mL (≈ 0.0312 µM).

In general, IC50 refers to the concentration needed to halve the response being measured. A low value points to higher potency.
